# Laboratory results taken from PubChem BioAssay AID1963843 (Molecular Pharmacology Branch, DTP, NCI, 2024).
# “And” between values parts separate entries of the source, which are not always exact repeats. Equal values may be shown once.
# Test system: 616215-338-R-J1-PDC complex spheroid viability
# Test: Anticancer human tumor 616215-338-R-J1-PDC patient-derived colon adenocarcinoma cell line growth inhibition [POLQ]
# Settings: for viability, T/C: stronger effect = lower value
# Procedure: Multicellular complex tumor spheroid response to Polymerase (POL) inhibitors (novobiocin, ART-558, RP6685) in combination with a variety of drugs and investigational agents in selected tumor cell lines
# The POL inhibitors (novobiocin, ART-558, and RP6685) were evaluated both individually and in combination with standard of care and investigational anticancer small molecules within a complex spheroid model of solid tumors. . Complex spheroids include a stromal component modeled by human endothelial cells (HUVEC) and fibroblasts modeled by human mesenchymal stem cells (MSCs). The concentration ranges selected for each drug and investigational agent were based upon clinically achievable concentrations if the clinical Cmax of the agent was known.
# Compounds. The drugs and investigational agents: novobiocin (NSC847541), ART-558 (NSC835418), RP-6685 (NSC848927), peposertib (NSC802822), ceralasertib (NSC780249), elimusertib (NSC800525), camonsertib (NSC841442), AZD-1390 (NSC803789), olaparib (NSC753686), talazoparib (NSC767125), rucaparib (NSC756644), sotorasib (NSC818433), MRTX-1133 (NSC836407), SN-38 (NSC673596), topotecan (NSC609699), epotoside (NSC141540), doxorubicin (NSC123127), gemcitabine (NSC613327), 5-fluorouracil (NSC19893), paclitaxel (NSC125973), vemurafenib (NSC761431), MSA-2 (NSC828583), SN-011 (NSC837082), adavosertib (NSC754352), prexasertib (NSC758257), carboplatin (NSC241240) and oxaliplatin (NSC266046), were obtained from the National Cancer Institute (NCI) Developmental Therapeutics Program Chemical Repository (21). The FDA-approved anticancer drug set is available from the Developmental Therapeutics Program at https://dtp.cancer.gov/organization/dscb/obtaining/. […] The stock solutions were prepared in dimethyl sulfoxide (DMSO, Sigma-Aldrich, St. Louis, MO, cat. D2650), except for the platinum compounds which were prepared in saline (Quality Biological, Gaithersburg, MD, cat. 114-055-101), at 800-fold the tested concentration and stored at -70 degrees C prior to their use. All drugs and investigational agents were tested over a range starting from a high concentration at or near the clinical Cmax and decreasing in half-log increments. If the clinical Cmax for an agent had not been determined, the highest concentration tested was 10 microM, except for SN-38, which was tested at a high concentration of 1 microM.
# Cell Culture. All cells were maintained in an incubator at 37 degrees C and 5% CO2 with 95% humidity. The PDC lines were cultured according to standard operating procedures established by the NCI PDMR (https://pdmr.cancer.gov). Table 3 of the manuscript, lists the cell lines along with the number of the three cell types plated to form the mct-spheroids and media for tumor cell growth. After thawing, all PDC lines, except 997537-175-T-J1-PDC and 415267-285-R-J2-PDC, were cultured in Matrigel-coated flasks prepared with a working solution of 1X Ham's F-12 nutrient mix, without supplementation (Thermo Fisher Scientific, cat. 11765054), 100 U/mL penicillin-streptomycin (Thermo Fisher Scientific, cat. 15140122), and 2.5% Matrigel (Corning Inc., Corning, NY, cat. 354248) for the first three passages. The two PDC lines 997537-175-T-J1-PDC and 415267-285-R-J2-PDC were cultured on uncoated flasks. The 857933-349-R-J2-PDC line was cultured in 6C/Colon 1B media containing advanced DMEM/F-12 (Thermo Fisher Scientific, cat. 12634028), 10 mM HEPES (Thermo Fisher Scientific, cat. 15630080), 1X GlutaMAX supplement (Thermo Fisher Scientific, cat. 35050061), 0.1 mg/mL primocin (InvivoGen, San Diego, CA, cat. ant-pm-2), 10% defined fetal bovine serum, heat inactivated (HyClone Laboratories Inc., Logan, UT, cat. SH30070.03HI), 50% L-WRN conditioned media (ATCC, cat. CRL-3276), 1.25 mM N-Acetyl-L-cysteine (Sigma-Aldrich, cat. A9165), 10 mM nicotinamide (Sigma-Aldrich, cat. N0636), 1X B-27 supplement (Thermo Fisher Scientific, cat. 17504044), 1X N-2 supplement (Thermo Fisher Scientific, cat. […]
# 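Also: spheroids exposed to compounds for one week before readout.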
# 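For viability, T/C in this document: percent viability relative to DMSO vehicle wells taken as 100%.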
smiles,measurement,setting,value
CNCc1ccc(-c2[nH]c3cc(F)cc4c3c2CCNC4=O)cc1,"viability, T/C",compound 0.0316 µM,92.7% and 108% and 87.4%
same,"viability, T/C",compound 0.1 µM,99.1% and 101% and 106%
same,"viability, T/C",compound 0.316 µM,102% and 104% and 96.3%
same,"viability, T/C",compound 1 µM,96.4% and 106% and 107%
same,"viability, T/C",compound 3.16 µM,103% and 107% and 96.9%
same,"viability, T/C",compound 10 µM,90.2% and 26.3% and 83.5%
same,IC50,curve of compound,> 10 µM and 7.08 µM
CC[C@@]1(O)C(=O)OCc2c1cc1n(c2=O)Cc2cc3c(CN(C)C)c(O)ccc3nc2-1,"viability, T/C",compound 0.000316 µM,83.5% and 113% and 93.4%
same,"viability, T/C",compound 0.001 µM,99.2% and 100% and 96.4%
same,"viability, T/C",compound 0.00316 µM,99.6% and 109% and 96.2%
same,"viability, T/C",compound 0.01 µM,97.7% and 101% and 110%
same,"viability, T/C",compound 0.0316 µM,111% and 70.1% and 103%
same,"viability, T/C",compound 0.1 µM,82.6% and 39% and 93.5%
same,IC50,curve of compound,> 0.1 µM and 0.0666 µM
CCc1cc2c(N3CCc4c(cc(Cn5ccnc5)cc4-c4cn(C)nc4C(F)(F)F)C3=O)cc(C)nc2c(OC)n1,"viability, T/C",compound 0.0316 µM,111% and 112% and 115%
same,"viability, T/C",compound 0.1 µM,99.7% and 102% and 100%
same,"viability, T/C",compound 0.316 µM,103% and 79.5% and 78.1%
same,"viability, T/C",compound 1 µM,98.2% and 62.6% and 69.1%
same,"viability, T/C",compound 3.16 µM,62.3% and 54.4% and 53.4%
same,"viability, T/C",compound 10 µM,51.3% and 41.3% and 39.7%
same,IC50,curve of compound,> 10 µM and 3.64 µM and 4.13 µM
CC(=O)O[C@H]1C(=O)[C@@]2(C)[C@H]([C@H](OC(=O)c3ccccc3)[C@]3(O)C[C@H](OC(=O)[C@H](O)[C@@H](NC(=O)c4ccccc4)c4ccccc4)C(C)=C1C3(C)C)[C@]1(OC(C)=O)CO[C@@H]1C[C@@H]2O,"viability, T/C",compound 0.00949 µM,39.3% and 41.7% and 86.3%
same,"viability, T/C",compound 0.03 µM,23.3% and 27.1% and 44.5%
same,"viability, T/C",compound 0.0949 µM,23.8% and 24.4% and 38.2%
same,"viability, T/C",compound 0.3 µM,15.6% and 17.9% and 35.5%
same,"viability, T/C",compound 0.949 µM,18% and 18.2% and 36.7%
same,"viability, T/C",compound 3 µM,21.7% and 17.8% and 34.3%
same,IC50,curve of compound,< 0.00949 µM and 0.0258 µM
O=C(Nc1ccc(O)c(NS(=O)(=O)c2ccc(F)cc2)c1)c1ccc(-c2ccccc2)cc1 + Cc1cccc(N(C)C(=O)C2C(O)CCN2c2nc(C)cc(C(F)(F)F)c2C#N)c1,IC50,"curve of first compound, second compound 0.0316 µM",> 10 µM
same,IC50,"curve of first compound, second compound 0.1 µM",> 10 µM
same,IC50,"curve of first compound, second compound 0.316 µM",> 10 µM
same,IC50,"curve of first compound, second compound 1 µM",6.74 µM
same,IC50,"curve of first compound, second compound 3.16 µM",8.18 µM
same,IC50,"curve of first compound, second compound 10 µM",7.24 µM
same,"viability, T/C","second compound 0.0316 µM, first compound 0.0316 µM",109%
same,"viability, T/C","second compound 0.0316 µM, first compound 0.1 µM",105%
same,"viability, T/C","second compound 0.0316 µM, first compound 0.316 µM",103%
same,"viability, T/C","second compound 0.0316 µM, first compound 1 µM",93.7%
same,"viability, T/C","second compound 0.0316 µM, first compound 3.16 µM",101%
same,"viability, T/C","second compound 0.0316 µM, first compound 10 µM",72.5%
same,"viability, T/C","second compound 0.1 µM, first compound 0.0316 µM",109%
same,"viability, T/C","second compound 0.1 µM, first compound 0.1 µM",95.7%
same,"viability, T/C","second compound 0.1 µM, first compound 0.316 µM",108%
same,"viability, T/C","second compound 0.1 µM, first compound 1 µM",114%
same,"viability, T/C","second compound 0.1 µM, first compound 3.16 µM",96.5%
same,"viability, T/C","second compound 0.1 µM, first compound 10 µM",76.1%
same,"viability, T/C","second compound 0.316 µM, first compound 0.0316 µM",95.2%
same,"viability, T/C","second compound 0.316 µM, first compound 0.1 µM",117%
same,"viability, T/C","second compound 0.316 µM, first compound 0.316 µM",92.1%
same,"viability, T/C","second compound 0.316 µM, first compound 1 µM",108%
same,"viability, T/C","second compound 0.316 µM, first compound 3.16 µM",103%
same,"viability, T/C","second compound 0.316 µM, first compound 10 µM",73%
same,"viability, T/C","second compound 1 µM, first compound 0.0316 µM",98.3%
same,"viability, T/C","second compound 1 µM, first compound 0.1 µM",99.8%
same,"viability, T/C","second compound 1 µM, first compound 0.316 µM",107%
same,"viability, T/C","second compound 1 µM, first compound 1 µM",96.6%
same,"viability, T/C","second compound 1 µM, first compound 3.16 µM",82%
same,"viability, T/C","second compound 1 µM, first compound 10 µM",33.4%
same,"viability, T/C","second compound 3.16 µM, first compound 0.0316 µM",117%
same,"viability, T/C","second compound 3.16 µM, first compound 0.1 µM",106%
same,"viability, T/C","second compound 3.16 µM, first compound 0.316 µM",95.3%
same,"viability, T/C","second compound 3.16 µM, first compound 1 µM",88.1%
same,"viability, T/C","second compound 3.16 µM, first compound 3.16 µM",95.4%
same,"viability, T/C","second compound 3.16 µM, first compound 10 µM",40.5%
same,"viability, T/C","second compound 10 µM, first compound 0.0316 µM",108%
same,"viability, T/C","second compound 10 µM, first compound 0.1 µM",102%
same,"viability, T/C","second compound 10 µM, first compound 0.316 µM",91.8%
same,"viability, T/C","second compound 10 µM, first compound 1 µM",93.1%
same,"viability, T/C","second compound 10 µM, first compound 3.16 µM",87.2%
same,"viability, T/C","second compound 10 µM, first compound 10 µM",35.8%
